PMC11381475, “Biopharmaceutical profiling of anti-infective sanggenons from Morus alba root bark for inhalation administration” (International Journal of Pharmaceutics: X, 2024)
In brackets after ≈: the same amount, converted by molar mass. Like-named read-outs stand apart in the source and are kept apart here.

Legend:
[1] = UV-metric pKa measurement (SiriusT3); assay type: physicochemical; settings: experimental, SiriusT3, 25 °C, mean ± S.D.
Description: Experimental pKa (−log10 of the acid dissociation equilibrium constant) values of SGC and SGD were evaluated using the UV-metric pKa measurement method of the SiriusT3 automated titrator instrument and the corresponding software SiriusT3Control and SiriusT3Refine (Pion Inc., Billerica, USA). The SiriusT3 apparatus uses a deuterium lamp to determine the UV/Vis absorbance spectrum of the test solutions at each pH point. The standard aqueous UV-metric pKa measurement protocol was conducted according to manufacturer instructions. […] This was mixed with 25 μL phosphate buffer (14.7 mM K2HPO4 and 0.15 M KCl in MilliQ water) and diluted with 1.5 mL ionic strength-adjusted water (ISA water ≡ 0.15 M KCl in MilliQ water). The subsequent acid/base titration and measurement of UV absorbance was automatically performed by the SiriusT3 at 25.0 ± 0.5 °C. […] Turbidity was monitored by a turbidity sensor to ensure the absence of precipitation of the test compounds during the experiment, since accurate pKa measurements are limited to fully dissolved substances. In case turbidity occurred, individual titrations were not used for further analysis, resulting in a total of 11 analysable titrations across the 5 replicate samples for both SGC and SGD.

[2] = potentiometric logP, water-octanol (SiriusT3); assay type: physicochemical; settings: octanol/water, experimental, mean ± S.D., n = 3, read-out: logP
Description: LogP (partition coefficient) evaluation was performed via SiriusT3. The potentiometric logP measurement relies on assessing the partition profile of the test substance within a two-phase water-octanol solvent system. Changes in the relative volume ratio of octanol to water lead to shifts in the apparent pKa, resulting from the partitioning between non-ionised and ionised forms. LogP values were then estimated based on these assessments.

[3] = system: Calu-3 cells; assay: Calu-3 cell uptake, FIA-TOFMS; assay type: in vitro ADME, human; settings: 50 µg/mL; for Concentration [pg/µL] 1 in cell extract / Normalized concentration [pg/cell] 1: replicate 1; for Concentration [pg/µL] 2 in cell extract / Normalized concentration [pg/cell] 2: replicate 2; for Concentration [pg/µL] 3 in cell extract / Normalized concentration [pg/cell] 3: replicate 3
Description: At 4, 12, and 24 h after addition, cell extracts were generated in triplicates. To that end, the medium was aspirated from the respective wells, and cells were washed with pre-warmed ammonium carbonate solution (75 mM, pH 7.4, 37 °C). Immediately after removal of the wash solvent, 300 μL cold extraction solvent (40:40:20 acetonitrile:methanol:water, −20 °C) was added per well to lyse cells in situ and stop the enzymatic activity. The bottom of each well was subsequently scraped and the cell extracts were transferred to 96-well storage plates and stored at −80 °C until analysis. […] Quantification of SGC and SGD was performed using flow-injection time-of-flight mass spectrometry (FIA-TOFMS) in negative ion mode as described previously ([Fuhrer et al., 2011]). SGC and SGD signals were identified by matching accurate masses (for both [M-H]- at 707.2127 m/z). To account for possible influences of the complex matrix in the cell extract samples, a matrix-matched series of calibration samples were prepared, in which increasing concentrations of SGC were spiked into extracts of cells that had not previously been treated with either SGC or SGD. The calibration samples were injected alongside the cell extract samples and used to establish a calibration function using linear regression. The ion intensities measured were converted into SGC and SGD concentrations and normalized by the cell number in each sample, which was determined at each time point in separate cell cultures using trypan blue staining and cell counting in a Thermo Fisher Countess II Automated cell counter after trypsin-mediated cell detachment. This procedure eventually yielded estimates of SGC and SGD contents in pg/cell.

[4] = system: Calu-3 monolayer
[5] = system: Calu-3 monolayer; remark: listed apart in the source
[6] = system: SARS-CoV-2; design: method as in Wasilewicz et al., 2023; settings: reported to be based on inhibition of the viral main protease, ref Wasilewicz et al., 2023; read-out: anti-SARS-CoV-2 activity IC50; cited from earlier work
[7] = Calu-3 cell viability, MTT assay; settings: human
[8] = pH-dependent thermodynamic solubility, miniaturized shake-flask method, UPLC-PDA; settings: for solubility thermodynamic at 24 h: 24 °C, thermodynamic from solid

SMILES: CC(C)=CC[C@]12Oc3cc(O)c([C@H]4C=C(C)C[C@H](c5ccc(O)cc5O)[C@H]4C(=O)c4ccc(O)cc4O)c(O)c3C(=O)[C@@]1(O)Oc1cc(O)ccc12 [SGC, sanggenon C]
- pKa ([1]; read-out: pKa 1): 2.64 ± 0.69
- pKa ([1]; read-out: pKa 2): 5.2 ± 0.8
- pKa ([1]; read-out: pKa 3): 6.74 ± 0.14
- pKa ([1]; read-out: pKa 4): 7.97 ± 0.06
- pKa ([1]; read-out: pKa 5): 9 ± 0.04
- pKa ([1]; read-out: pKa 6): 9.84 ± 0.05
- pKa ([1]; read-out: pKa 7): 10.7 ± 0.02
- pKa ([1]; read-out: pKa 8): 12.05 ± 0.07
- logP [2]: 3 to 3.5
- intracellular content, Mean [pg/cell] ([3]; 4 h): 2.0 ± 0.1 pg/cell
- Concentration [pg/µL] 1 in cell extract ([3]; 4 h): 4284 pg/µL
- Normalized concentration [pg/cell] 1 ([3]; 4 h): 2.09 pg/cell
- Concentration [pg/µL] 2 in cell extract ([3]; 4 h): 3851 pg/µL
- Normalized concentration [pg/cell] 2 ([3]; 4 h): 1.88 pg/cell
- Concentration [pg/µL] 3 in cell extract ([3]; 4 h): 3902 pg/µL
- Normalized concentration [pg/cell] 3 ([3]; 4 h): 1.90 pg/cell
- intracellular content, Mean [pg/cell] ([3]; 4 h, listed as Sanggenon C): 1.96 pg/cell
- intracellular content, Mean [pg/cell] ([3]; 12 h): 5.54 pg/cell
- Concentration [pg/µL] 1 in cell extract ([3]; 12 h): 13620 pg/µL
- Normalized concentration [pg/cell] 1 ([3]; 12 h): 5.77 pg/cell
- Concentration [pg/µL] 2 in cell extract ([3]; 12 h): 13397 pg/µL
- Normalized concentration [pg/cell] 2 ([3]; 12 h): 5.67 pg/cell
- Concentration [pg/µL] 3 in cell extract ([3]; 12 h): 12248 pg/µL
- Normalized concentration [pg/cell] 3 ([3]; 12 h): 5.19 pg/cell
- intracellular content, Mean [pg/cell] ([3]; 24 h): 8.1 ± 0.3 pg/cell
- Concentration [pg/µL] 1 in cell extract ([3]; 24 h): 17926 pg/µL
- Normalized concentration [pg/cell] 1 ([3]; 24 h): 8.34 pg/cell
- Concentration [pg/µL] 2 in cell extract ([3]; 24 h): 16862 pg/µL
- Normalized concentration [pg/cell] 2 ([3]; 24 h): 7.85 pg/cell
- Concentration [pg/µL] 3 in cell extract ([3]; 24 h): 17411 pg/µL
- Normalized concentration [pg/cell] 3 ([3]; 24 h): 8.11 pg/cell
- intracellular content, Mean [pg/cell] ([3]; 24 h, listed as Sanggenon C): 8.10 pg/cell
- evidence for permeability of SGC or SGD [4]: Neither by applying the isolated compounds nor the extracts MA60 and MA21, any evidence for the permeability of SGC or SGD was detectable
- permeability across intact Calu-3 monolayers [4]: no measurable permeability
- change in TEER during permeability study, B-A direction [5]: a decrease in TEER values was also observed
- IC50 [6]: 7.2 µM
- CC50 at 24 h [7]: 47.8 µg/mL (≈ 67.4 µM)
- solubility thermodynamic at 24 h ([8]; HCl buffer, pH 1.2, simulated gastric fluid): 4.47 µg/mL (≈ 6.31 µM)
- solubility thermodynamic at 24 h ([8]; acetate buffer, pH 4.5, aqueous buffer): 8.53 µg/mL (≈ 12 µM)
- pH 1.2 solubility ([8]; compound within extract MA21, pH 1.2): < LOQ
- pH 4.5 solubility ([8]; compound within extract MA21, pH 4.5): < LOQ
- pH 6.8 solubility ([8]; compound within extract MA21, pH 6.8): 4.05 µg/mL
- pH 7.4 solubility ([8]; compound within extract MA21, pH 7.4): 3.24 µg/mL
- pH 1.2 solubility ([8]; compound within extract MA60, pH 1.2): 6.88 µg/mL
- pH 4.5 solubility ([8]; compound within extract MA60, pH 4.5): < LOQ
- pH 6.8 solubility ([8]; compound within extract MA60, pH 6.8): 12.7 µg/mL
- pH 7.4 solubility ([8]; compound within extract MA60, pH 7.4): 13.6 µg/mL
- solubility thermodynamic at 24 h ([8]; phosphate buffer, pH 6.8, aqueous buffer): 18.5 µg/mL (≈ 26.1 µM)
- solubility thermodynamic at 24 h ([8]; phosphate buffer, pH 7.4, aqueous buffer): 47.1 µg/mL (≈ 66.5 µM)
